Assay results from PubChem BioAssay AID192 (DTP/NCI, 2004).
Several values for one entry are separate records, joined by “and”; a condition that tells them apart may be missing. Equal entries are not always repeated. Inconclusive results and toxic doses are left out.

Test system: BDF1 mice, B16 melanoma ip, median survival T/C
Assay: NCI In Vivo Anticancer Drug Screen. Data for tumor model B16 Melanoma (intraperitoneal) in B6D2F1 (BDF1) mice
Settings: endpoint: median survival time, higher = longer survival
Summary of the method: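 Tumor-bearing mice received test compound or vehicle. Survival or tumor size was then measured in both groups. The treated-group figure was divided by the control-group figure.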

[1] = dose: 50.0 mg/kg/injection, schedule: Q01DX009 (ip), vehicle: saline with Tween-80
[2] = dose: 100.0 mg/kg/injection, schedule: Q01DX009 (ip), vehicle: saline with Tween-80
[3] = dose: 25.0 mg/kg/injection, schedule: Q01DX009 (ip), vehicle: Klucel (hydroxypropylcellulose) (HPC)
[4] = dose: 50.0 mg/kg/injection, schedule: Q01DX009 (ip), vehicle: Klucel (hydroxypropylcellulose) (HPC)
[5] = dose: 100.0 mg/kg/injection, schedule: Q04DX003 (ip), vehicle: Klucel (hydroxypropylcellulose) (HPC)
[6] = dose: 12.5 mg/kg/injection, schedule: Q01DX009 (ip), vehicle: Klucel (hydroxypropylcellulose) (HPC)
[7] = dose: 100.0 mg/kg/injection, schedule: Q01DX009 (ip), vehicle: Klucel (hydroxypropylcellulose) (HPC)
[8] = dose: 200.0 mg/kg/injection, schedule: Q01DX009 (ip), vehicle: Klucel (hydroxypropylcellulose) (HPC)

## Cc1[nH]c(=O)[nH]c(=O)c1N(CCF)CCCl
dose: 1.8 mg/kg/injection, schedule: Q01DX009 (ip), vehicle: saline with Tween-80
  T/C: 110 % of control
dose: 3.0 mg/kg/injection, schedule: Q01DX009 (ip), vehicle: saline with Tween-80
  T/C: 110 % of control
dose: 5.0 mg/kg/injection, schedule: Q01DX009 (ip), vehicle: Klucel (hydroxypropylcellulose) (HPC)
  T/C: 100 % of control
dose: 8.0 mg/kg/injection, schedule: Q01DX009 (ip), vehicle: acid diluted with saline
  T/C: 123 % of control
dose: 14.0 mg/kg/injection, schedule: Q01DX009 (ip), vehicle: saline with Tween-80
  T/C: 165 % of control
dose: 16.0 mg/kg/injection, schedule: Q01DX009 (ip), vehicle: saline with Tween-80
  T/C: 121 % of control
dose: 16.0 mg/kg/injection, schedule: Q04DX003 (ip), vehicle: acid diluted with saline
  T/C: 107 % of control
dose: 16.0 mg/kg/injection, schedule: Q04DX003 (ip), vehicle: saline with Tween-80
  T/C: 123 % of control
dose: 32.0 mg/kg/injection, schedule: Q04DX003 (ip), vehicle: acid diluted with saline
  T/C: 118 % of control
dose: 32.0 mg/kg/injection, schedule: Q04DX003 (ip), vehicle: saline with Tween-80
  T/C: 180 % of control

## O=C1CSC(=S)N1c1ccco1
[1]
  T/C: 92 % of control
[2]
  T/C: 90 % of control
dose: 200.0 mg/kg/injection, schedule: Q01DX009 (ip), vehicle: saline with Tween-80
  T/C: 87 % of control

## CCOc1cc(C2=NNc3n[nH]c(=S)n3N2)ccc1O
[3]
  T/C: 96 % of control
dose: 25.0 mg/kg/injection, schedule: Q04DX003 (ip), vehicle: Klucel (hydroxypropylcellulose) (HPC)
  T/C: 97 % of control
[4]
  T/C: 100 % of control
dose: 50.0 mg/kg/injection, schedule: Q04DX003 (ip), vehicle: Klucel (hydroxypropylcellulose) (HPC)
  T/C: 102 % of control
[5]
  T/C: 122 % of control

## C[n+]1ccccc1/C=N/O
dose: 18.75 mg/kg/injection, schedule: Q01DX009 (ip), vehicle: saline
  T/C: 100 % of control
dose: 37.5 mg/kg/injection, schedule: Q01DX009 (ip), vehicle: saline
  T/C: 107 % of control
dose: 75.0 mg/kg/injection, schedule: Q01DX009 (ip), vehicle: saline
  T/C: 88 % of control and 106 % of control

## C[CH2][Sn]([CH2]C)([O]S(=O)(=O)CC12CCC(CC1=O)C2(C)C)[O]S(=O)(=O)CC12CCC(CC1=O)C2(C)C
dose: 1.56 mg/kg/injection, schedule: Q01DX009 (ip), vehicle: saline
  T/C: 100 % of control
dose: 3.12 mg/kg/injection, schedule: Q01DX009 (ip), vehicle: saline
  T/C: 108 % of control
dose: 6.25 mg/kg/injection, schedule: Q01DX009 (ip), vehicle: saline
  T/C: 115 % of control
dose: 12.5 mg/kg/injection, schedule: Q01DX009 (ip), vehicle: saline
  T/C: 100 % of control
dose: 25.0 mg/kg/injection, schedule: Q01DX009 (ip), vehicle: saline
  T/C: 96 % of control

## Cc1nc(SCc2ccc(Cl)cc2)[nH]c(=O)c1CCO
dose: 100.0 mg/kg/injection, schedule: Q04DX003 (ip), vehicle: saline with Tween-80
  T/C: 100 % of control
dose: 200.0 mg/kg/injection, schedule: Q04DX003 (ip), vehicle: saline with Tween-80
  T/C: 102 % of control
dose: 400.0 mg/kg/injection, schedule: Q04DX003 (ip), vehicle: saline with Tween-80
  T/C: 92 % of control

## CC(C)CC(NC(=O)C(O)C(N)Cc1ccccc1)C(=O)O (stereo unspecified)
dose: 0.05 mg/kg/injection, schedule: Q01DX009 (oral), vehicle: saline
  T/C: 97 % of control
dose: 0.5 mg/kg/injection, schedule: Q01DX009 (oral), vehicle: saline
  T/C: 97 % of control
dose: 5.0 mg/kg/injection, schedule: Q01DX009 (oral), vehicle: saline
  T/C: 96 % of control

## C[C@@H]1C[C@H]2[C@@H]3CCC4=CC(=O)C=C[C@]4(C)[C@@]3(F)[C@@H](O)C[C@]2(C)[C@@]1(O)C(=O)CO
dose: 3.12 mg/kg/injection, schedule: Q01DX009 (ip), vehicle: Klucel (hydroxypropylcellulose) (HPC)
  T/C: 114 % of control
dose: 6.25 mg/kg/injection, schedule: Q01DX009 (ip), vehicle: Klucel (hydroxypropylcellulose) (HPC)
  T/C: 107 % of control
[6]
  T/C: 114 % of control
[3]
  T/C: 107 % of control
[4]
  T/C: 115 % of control

## CCOC(=O)C(NC(C)=O)C(=O)OCC
[5]
  T/C: 90 % of control
dose: 200.0 mg/kg/injection, schedule: Q04DX003 (ip), vehicle: Klucel (hydroxypropylcellulose) (HPC)
  T/C: 102 % of control
dose: 400.0 mg/kg/injection, schedule: Q04DX003 (ip), vehicle: Klucel (hydroxypropylcellulose) (HPC)
  T/C: 95 % of control

## CSc1nc2cc(C)c(C)cc2[nH]1
dose: 25.0 mg/kg/injection, schedule: Q01DX009 (ip), vehicle: saline with Tween-80
  T/C: 100 % of control
[1]
  T/C: 97 % of control
[2]
  T/C: 97 % of control and 102 % of control

## C=C1C(=O)OC2CC1C(OC(=O)/C=C/c1ccccc1)C/C(C)=C/CC/C(C)=C/CCC2(C)O (stereo unspecified)
[6]
  T/C: 105 % of control
[3]
  T/C: 92 % of control
[4]
  T/C: 101 % of control

## CC1OC(=O)C(C(C)C)NC(=O)C(C(C)C)OC(=O)C(C(C)C)NC(=O)C(C)OC(=O)C(C(C)C)NC(=O)C(C(C)C)OC(=O)C(C(C)C)NC(=O)C(C)OC(=O)C(C(C)C)NC(=O)C(C(C)C)OC(=O)C(C(C)C)NC1=O (stereo unspecified)
dose: 0.04 mg/kg/injection, schedule: Q01DX009 (ip), vehicle: saline with Tween-80
  T/C: 101 % of control
dose: 0.08 mg/kg/injection, schedule: Q01DX009 (ip), vehicle: saline with Tween-80
  T/C: 106 % of control
dose: 0.16 mg/kg/injection, schedule: Q01DX009 (ip), vehicle: saline with Tween-80
  T/C: 117 % of control
dose: 0.2 mg/kg/injection, schedule: Q01DX009 (ip), vehicle: DMSO
  T/C: 117 % of control
dose: 0.31 mg/kg/injection, schedule: Q01DX009 (ip), vehicle: saline with Tween-80
  T/C: 152 % of control
dose: 0.4 mg/kg/injection, schedule: Q01DX009 (ip), vehicle: DMSO
  T/C: 176 % of control
dose: 0.75 mg/kg/injection, schedule: Q01DX009 (ip), vehicle: Klucel (hydroxypropylcellulose) (HPC)
  T/C: 106 % of control
dose: 0.75 mg/kg/injection, schedule: Q01DX009 (oral), vehicle: Klucel (hydroxypropylcellulose) (HPC)
  T/C: 101 % of control
dose: 1.5 mg/kg/injection, schedule: Q01DX009 (ip), vehicle: Klucel (hydroxypropylcellulose) (HPC)
  T/C: 101 % of control
dose: 1.5 mg/kg/injection, schedule: Q01DX009 (oral), vehicle: Klucel (hydroxypropylcellulose) (HPC)
  T/C: 104 % of control
dose: 2.5 mg/kg/injection, schedule: Q01DX009 (ip), vehicle: saline with Tween-80
  T/C: 153 % of control
dose: 3.0 mg/kg/injection, schedule: Q01DX009 (oral), vehicle: Klucel (hydroxypropylcellulose) (HPC)
  T/C: 105 % of control
dose: 5.0 mg/kg/injection, schedule: Q01DX009 (ip), vehicle: saline with Tween-80
  T/C: 183 % of control
dose: 5.0 mg/kg/injection, schedule: Q01DX009 (oral), vehicle: saline with Tween-80
  T/C: 105 % of control
dose: 6.0 mg/kg/injection, schedule: Q01DX009 (ip), vehicle: saline with Tween-80
  T/C: 165 % of control
dose: 6.0 mg/kg/injection, schedule: Q01DX009 (oral), vehicle: Klucel (hydroxypropylcellulose) (HPC)
  T/C: 107 % of control
dose: 10.0 mg/kg/injection, schedule: Q01DX009 (ip), vehicle: saline with Tween-80
  T/C: 171 % of control
dose: 10.0 mg/kg/injection, schedule: Q01DX009 (oral), vehicle: saline with Tween-80
  T/C: 116 % of control
dose: 12.0 mg/kg/injection, schedule: Q01DX009 (oral), vehicle: Klucel (hydroxypropylcellulose) (HPC)
  T/C: 100 % of control
dose: 20.0 mg/kg/injection, schedule: Q01DX009 (ip), vehicle: saline with Tween-80
  T/C: 94 % of control
dose: 20.0 mg/kg/injection, schedule: Q01DX009 (oral), vehicle: saline with Tween-80
  T/C: 116 % of control
dose: 24.0 mg/kg/injection, schedule: Q01DX009 (oral), vehicle: Klucel (hydroxypropylcellulose) (HPC)
  T/C: 94 % of control
dose: 40.0 mg/kg/injection, schedule: Q01DX009 (oral), vehicle: saline with Tween-80
  T/C: 109 % of control

## COc1cccc(C(Cc2ccccc2)NCc2ccccc2)c1 (stereo unspecified)
[7]
  T/C: 106 % of control
[8]
  T/C: 100 % of control
dose: 400.0 mg/kg/injection, schedule: Q01DX009 (ip), vehicle: Klucel (hydroxypropylcellulose) (HPC)
  T/C: 96 % of control

## NC(Cc1ccc(O)cc1)C(=O)N/N=C/c1ccc(N(CCCl)CCCl)cc1 (stereo unspecified)
dose: 15.0 mg/kg/injection, schedule: Q01DX009 (ip), vehicle: Klucel (hydroxypropylcellulose) (HPC)
  T/C: 115 % of control
dose: 30.0 mg/kg/injection, schedule: Q01DX009 (ip), vehicle: Klucel (hydroxypropylcellulose) (HPC)
  T/C: 120 % of control

## Nc1ncnc2c1ncn2Cc1ccccc1
[4]
  T/C: 89 % of control and 90 % of control
[7]
  T/C: 90 % of control and 100 % of control
[8]
  T/C: 86 % of control

## O=C(O)[C@@H]1[C@H]2C[C@H]3c4[nH]c5ccccc5c4CCN3C[C@@H]2CC[C@@H]1O
[3]
  T/C: 89 % of control
[4]
  T/C: 88 % of control
[7]
  T/C: 97 % of control
[8]
  T/C: 92 % of control
